# Results reported in patent publication US7687536B2, “Aminocycloalkyl cinnamide compounds for arrhythmia and as analgesics and anesthetics” (Cardiome Pharma Corp., priority 1999, dated 2010).
# Tests used:
# AF = conditions: cited from earlier work
# [1] = system: cardiac arrhythmias in conscious rats subjected to coronary artery occlusion; test: Antiarrhythmic efficacy: coronary artery occlusion in conscious rats; assay type: in vivo, rat; conditions: infusion rate which reduces the arrhythmia score to 50% of that of vehicle-treated animals
# Description: Antiarrhythmic efficacy was assessed by investigating the effect of a compound on the incidence of cardiac arrhythmias in conscious rats subjected to coronary artery occlusion. Rats weighing 200-300 gms were subjected to preparative surgery and assigned to groups in a random block design. In each case, the animal was anesthetized with halothane during surgical preparation. The left femoral artery was cannulated for measurement of mean arterial blood pressure and withdrawal of blood sample. The left femoral vein was also cannulated for injection of drugs. The thoracic cavity was opened and a polyethylene occluder loosely placed around the left anterior descending coronary artery. The thoracic cavity was then closed. ECG was recorded by insertion of electrodes placed along the anatomical axis of the heart. All cannulae and electrode leads were exteriorized in the mid scapular region. […] ECG, arrhythmias, blood pressure, heart rate and mortality were monitored for 30 minutes after occlusion. Arrhythmias were recorded as ventricular tachycardia (VT) and ventricular fibrillation (VF) and scored according to Curtis, M. J. and Walker, M. J. A., Cardiovasc. […]
# Occlusion is associated with increases in R-wave height and “S-T” segment elevation; and an occluded zone (measured after death by cardiogreen dye perfusion) in the range of 25%-50% of total left-ventricular weight. […]
# cardiac sodium channel = target: T1, cardiac sodium channel (Rattus norvegicus, UniProt P15389); test: Assessment of sodium channel blockage: electrical stimulation of left ventricle in rats; assay type: in vivo; conditions: infusion rate required to elicit a 25% increase from control
# T1 construct: from tissue; host or cells: heart (left ventricle) of the living rat, in vivo
# T1 sequence (P15389 whole entry, the tested form may be a part): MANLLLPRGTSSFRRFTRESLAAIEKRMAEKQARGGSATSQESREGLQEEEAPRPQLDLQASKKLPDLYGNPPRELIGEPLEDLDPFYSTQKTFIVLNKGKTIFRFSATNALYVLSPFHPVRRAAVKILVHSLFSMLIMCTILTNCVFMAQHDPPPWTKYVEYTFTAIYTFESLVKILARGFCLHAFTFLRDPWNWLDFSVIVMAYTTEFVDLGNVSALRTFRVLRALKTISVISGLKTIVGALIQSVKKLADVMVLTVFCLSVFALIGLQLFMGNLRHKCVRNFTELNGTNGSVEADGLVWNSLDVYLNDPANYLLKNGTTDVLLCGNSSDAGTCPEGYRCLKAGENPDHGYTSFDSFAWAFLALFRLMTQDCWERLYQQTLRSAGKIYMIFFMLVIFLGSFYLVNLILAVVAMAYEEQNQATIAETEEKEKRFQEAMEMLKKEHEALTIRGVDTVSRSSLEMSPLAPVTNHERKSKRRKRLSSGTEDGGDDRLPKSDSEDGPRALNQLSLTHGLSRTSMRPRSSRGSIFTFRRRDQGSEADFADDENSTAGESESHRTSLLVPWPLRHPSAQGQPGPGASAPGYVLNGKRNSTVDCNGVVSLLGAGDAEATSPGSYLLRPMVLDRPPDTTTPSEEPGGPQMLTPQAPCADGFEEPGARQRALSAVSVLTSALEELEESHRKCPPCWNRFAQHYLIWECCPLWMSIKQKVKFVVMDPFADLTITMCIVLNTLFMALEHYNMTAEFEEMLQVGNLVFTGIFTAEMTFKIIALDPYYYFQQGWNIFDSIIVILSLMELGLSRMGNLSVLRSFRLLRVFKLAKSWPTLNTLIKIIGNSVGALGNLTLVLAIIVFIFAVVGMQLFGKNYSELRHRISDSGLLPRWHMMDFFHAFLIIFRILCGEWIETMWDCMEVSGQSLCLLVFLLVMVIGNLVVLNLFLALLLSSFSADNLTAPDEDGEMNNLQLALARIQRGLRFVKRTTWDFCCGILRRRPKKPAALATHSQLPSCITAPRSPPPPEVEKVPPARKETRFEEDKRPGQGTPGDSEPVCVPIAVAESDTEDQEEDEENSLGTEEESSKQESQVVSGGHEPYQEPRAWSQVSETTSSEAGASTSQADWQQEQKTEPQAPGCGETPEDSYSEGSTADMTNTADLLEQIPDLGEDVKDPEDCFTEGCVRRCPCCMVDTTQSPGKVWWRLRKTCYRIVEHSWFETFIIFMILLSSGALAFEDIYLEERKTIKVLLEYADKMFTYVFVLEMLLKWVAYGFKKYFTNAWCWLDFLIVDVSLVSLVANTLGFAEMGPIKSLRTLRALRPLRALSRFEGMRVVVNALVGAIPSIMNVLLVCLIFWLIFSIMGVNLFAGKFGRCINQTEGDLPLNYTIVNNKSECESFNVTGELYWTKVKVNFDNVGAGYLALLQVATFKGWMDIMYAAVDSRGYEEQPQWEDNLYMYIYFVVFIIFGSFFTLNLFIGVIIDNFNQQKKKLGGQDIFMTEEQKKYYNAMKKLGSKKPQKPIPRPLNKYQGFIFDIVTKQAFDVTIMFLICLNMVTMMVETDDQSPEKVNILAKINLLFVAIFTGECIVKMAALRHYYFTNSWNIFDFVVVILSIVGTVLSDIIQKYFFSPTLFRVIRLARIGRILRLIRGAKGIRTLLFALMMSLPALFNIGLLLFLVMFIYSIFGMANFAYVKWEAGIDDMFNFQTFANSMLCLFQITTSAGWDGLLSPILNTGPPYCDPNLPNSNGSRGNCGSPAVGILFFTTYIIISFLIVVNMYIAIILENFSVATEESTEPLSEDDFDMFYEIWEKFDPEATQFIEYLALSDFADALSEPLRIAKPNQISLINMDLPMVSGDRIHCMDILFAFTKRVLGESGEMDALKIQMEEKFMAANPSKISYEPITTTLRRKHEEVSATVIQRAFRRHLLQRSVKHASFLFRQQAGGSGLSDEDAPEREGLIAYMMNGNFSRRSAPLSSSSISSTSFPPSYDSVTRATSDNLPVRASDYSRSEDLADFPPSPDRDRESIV
# Description: Rats were prepared according to the preceding procedure. Two silver stimulating electrodes were inserted through the chest wall and implanted in the left ventricle. Square wave stimulation was used to determine threshold current for capture, ventricular fibrillation threshold current, and effective refractory period (Howard, P. G. and Walker, M. J. A., Proc. West. Pharmacol. Soc. 33:123-127 (1990)). Table 4 contains ED25 values for these indices of cardiac sodium channel blockage, where the ED25 is the infusion rate in micromol/kg/minute of compound required to elicit a 25% increase from control. The increases in refractoriness indicate ancillary blockage of potassium channels. The threshold current for capture is represented by “It”. The fibrillation threshold current is represented by “VFT”. The effective refracting period is represented by “ERP”.
# [2] = system: ECG parameters (P-R, QRS, Q-T interval); test: Measurement of ECG parameters in pentobarbital anesthetized rats, bolus injections; assay type: in vivo, rat; conditions: bolus injection
# Description: Rats weighing 200-250 gms were used in this example. Animals were anesthetized with 60 mg/kg pentobarbital i.p. The carotid artery and jugular vein were cannulated for measurement of blood pressure and drug injection, respectively. ECG was recorded by insertion of electrodes placed along the anatomical axis of the heart. All compounds were given as bolus injections.
# Various ECG parameters were measured. Table 3 describes the results of the tests as ED25 (micromol/kg) which are the doses required to produce a 25% increase in the parameter measured (ne=not estimated). The increases in P-R interval and QRS interval indicate cardiac sodium channel blockage while the increase in Q-T interval indicates ancillary cardiac potassium channel blockage which is the property of a type 1a antiarrhythmic.
# [3] = system: sustained AF maintained during continuous vagal nerve stimulation; test: Canine vagal-AF model; assay type: in vivo, dog
# Description: Mongrel dogs of either sex weighing 15-49 kg were anesthetized with morphine (2 mg/kg im initially, followed by 0.5 mg/kg IV every 2 h) and α-chloralose (120 mg/kg IV followed by an infusion of 29.25 mg/kg/h; St.-Georges et al., 1997). Dogs were ventilated mechanically with room air supplemented with oxygen via an endotracheal tube at 20 to 25 breaths/minute with a tidal volume obtained from a nomogram. Arterial blood gases were measured and kept in the physiological range (SAO2>90%, pH 7.30-7.45). Catheters were inserted into the femoral artery for blood pressure recording and blood gas measurement, and into both femoral veins for drug administration and venous sampling. Catheters were kept patent with heparinized 0.9% saline solution. Body temperature was maintained at 37-40° C. with a heating blanket.
# The heart was exposed via a medial thoracotomy and a pericardial cradle was created. Three bipolar stainless steel, Teflon™-coated electrodes were inserted into the right atria for recording and stimulation, and one was inserted into the left atrial appendage for recording. A programmable stimulator (Digital Cardiovascular Instruments, Berkeley, Calif.) was used to stimulate the right atrium with 2 ms, twice diastolic threshold pulses. Two stainless steel, Teflon™-coated electrodes were inserted into the left ventricle, one for recording and the other for stimulation. A ventricular demand pacemaker (GBM 5880, Medtronics, Minneapolis, Minn.) was used to stimulate the ventricles at 90 beats/minute when (particular during vagal-AF) the ventricular rate became excessively slow. A P23 ID transducer, electrophysiological amplifier (Bloom Associates, Flying Hills, Pa.) and paper recorder (Astromed MT-95000, Toronto, ON, Canada) were used to record ECG leads II and III, atrial and ventricular electrograms, blood pressure and stimulation artefacts. The vagi were isolated in the neck, doubly-ligated and divided, and electrodes inserted in each nerve (see below). To block changes in β-adrenergic effects on the heart, nadolol was administered as an initial dose of 0.5 mg/kg iv, followed by 0.25 mg/kg IV every two hours.
# Drug effects to terminate sustained AF maintained during continuous vagal nerve stimulation were assessed. Unipolar hook electrodes (stainless steel insulated with Teflon™, coated except for the distal 1-2 cm) were inserted via a 21 gauge needle within and parallel to the shaft of each nerve. In most experiments, unipolar stimuli were applied with a stimulator (model DS-9F, Grass Instruments, Quincy, Mass.) set to deliver 0.1 ms square-wave pulses at 10 Hz and a voltage 60% of that required to produce asystole. In some experiments, bipolar stimulation was used. The voltage required to produce asystole ranged between 3-20 volts. Under control conditions, a short burst of rapid atrial pacing (10 Hz, four times diastolic threshold) was delivered to induce AF which was ordinarily sustained for more than 20 minutes. The vagal stimulation voltage was adjusted under control conditions, and then readjusted after each treatment to maintain the same bradycardic effect. AF was defined as rapid (>500 minute under control conditions), irregular atrial rhythm with varying electrogram morphology.
# Diastolic threshold current was determined at a basic cycle length of 300 ms by increasing the current 0.1 mA incrementally until stable capture was obtained. For subsequent protocols current was set to twice diastolic threshold. Atrial and ventricular ERP was measured with the extrastimulus method, over a range of S1S2 intervals at a basic cycle length of 300 ms. A premature extrastimulus S2 was introduced every 15 basic stimuli. The S1S2 interval was increased in 5 ms increments until capture occurred, with the longest S1S2 interval consistently failing to produce a propagated response defining ERP. Diastolic threshold and ERP were determined in duplicate and averaged to give a single value. These values were generally within 5 ms. […]
smiles,measurement,setting,value
CCCCCCCN(CC)CCCC(O)c1ccc(NS(C)(=O)=O)cc1 (stereo not shown) [ibutilide],patients requiring cardioversion for refractory ventricular arrhythmias,AF,~1.7%
same,risk of ventricular proarrhythmia,AF; patients,~4.4%
"CN(C(=O)C=Cc1ccc(Cl)c(Cl)c1)C1CCCC1N1CCCC1.Cl [Compound 3, (1R,2R)/(1S,2S)≠N-METHYL-N-[2-(1-PYRROLIDINYL)CYCLOPENTYL]3,4-DICHLOROCINNAMIDE MONOHYDROCHLORIDE]",ED50AA,[1],2 µmol/kg/min
same,ED25 ERP (effective refractory period),cardiac sodium channel,2 µmol/kg/min
same,ED25 It (threshold current for capture),cardiac sodium channel,4 µmol/kg/min
same,ED25 VFT (fibrillation threshold current),cardiac sodium channel,12 µmol/kg/min
same,ED25 PR,[2]; dose required to produce a 25% increase in P-R interval,8 µmol/kg
same,ED25 QT,[2]; dose required to produce a 25% increase in Q-T interval,5 µmol/kg
same,ED25 QRS,[2]; dose required to produce a 25% increase in QRS interval,12 µmol/kg
O=C(NCC1CCCCN1)c1cc(OCC(F)(F)F)ccc1OCC(F)(F)F (stereo not shown) [Flecainide],Median dose required for termination of AF,[3]; IV,2.5 µmol/kg
same,effect on blood pressure or heart rate,[3]; at the median dose for termination of vagal-AF,did not reduce blood pressure or heart rate
same,prevented induction of AF,[3]; dogs in which AF was induced under control conditions during ERP determination with vagal nerve stimulation,2/4
same,AF cycle length (AFCL),"[3]; during vagal nerve stimulation, prior to termination of AF",prolonged AFCL
same,Mean dose required for termination of AF,"[3]; mean±SEM, IV",4 ± 2 µmol/kg
same,efficacy for terminating AF (dogs terminated/dogs tested),[3]; vagal-AF,5/6
same,efficacy for terminating AF (percent of dogs),[3]; vagal-AF,80%
